Experimental findings from US10815239B2, “Compounds useful as inhibitors of ATR kinase” (Vertex Pharmaceuticals Incorporated, priority 2013, dated 2020) are described below.

The target of the experiment is T1, full-length ATR (Homo sapiens, UniProt Q13535).
T1 construct: Assays are carried out at 25° C. in the presence of 5 nM full-length ATR
Nature of the experiment: ATR Inhibition Assay (radioactive-phosphate incorporation). In kind it is biochemical. The note with it: 5 nM full-length ATR, 10 μM ATP, 800 μM target peptide, 25° C.; read-out: Ki (Ki(app)) for inhibition of ATR. The protocol: Compounds can be screened for their ability to inhibit ATR kinase using a radioactive-phosphate incorporation assay. Assays are carried out in a mixture of 50 mM Tris/HCl (pH 7.5), 10 mM MgCl2 and 1 mM DTT. Final substrate concentrations are 10 μM [γ-33P]ATP (3 mCi 33P ATP/mmol ATP, Perkin Elmer) and 800 μM target peptide (ASELPASQPQPFSAKKK).
Assays are carried out at 25° C. in the presence of 5 nM full-length ATR. An assay stock buffer solution is prepared containing all of the reagents listed above, with the exception of ATP and the test compound of interest. 13.5 μL of the stock solution is placed in a 96 well plate followed by addition of 2 μL of DMSO stock containing serial dilutions of the test compound (typically starting from a final concentration of 15 μM with 3-fold serial dilutions) in duplicate (final DMSO concentration 7%). The plate is pre-incubated for 10 minutes at 25° C. and the reaction initiated by addition of 15 μL [γ-33P]ATP (final concentration 10 μM).
The reaction is stopped after 24 hours by the addition of 30 μL 0.1M phosphoric acid containing 2 mM ATP. […]
After removing mean background values for all of the data points, Ki(app) data are calculated from non-linear regression analysis of the initial rate data using the Prism software package (GraphPad Prism version 3.0cx for Macintosh, GraphPad Software, San Diego Calif., USA).

Broadly, the pKi is the Ki on a negative log10 scale, so that one unit is a factor of ten.

pKi: −log10 of the molar value.

T1 sequence (Q13535 whole entry): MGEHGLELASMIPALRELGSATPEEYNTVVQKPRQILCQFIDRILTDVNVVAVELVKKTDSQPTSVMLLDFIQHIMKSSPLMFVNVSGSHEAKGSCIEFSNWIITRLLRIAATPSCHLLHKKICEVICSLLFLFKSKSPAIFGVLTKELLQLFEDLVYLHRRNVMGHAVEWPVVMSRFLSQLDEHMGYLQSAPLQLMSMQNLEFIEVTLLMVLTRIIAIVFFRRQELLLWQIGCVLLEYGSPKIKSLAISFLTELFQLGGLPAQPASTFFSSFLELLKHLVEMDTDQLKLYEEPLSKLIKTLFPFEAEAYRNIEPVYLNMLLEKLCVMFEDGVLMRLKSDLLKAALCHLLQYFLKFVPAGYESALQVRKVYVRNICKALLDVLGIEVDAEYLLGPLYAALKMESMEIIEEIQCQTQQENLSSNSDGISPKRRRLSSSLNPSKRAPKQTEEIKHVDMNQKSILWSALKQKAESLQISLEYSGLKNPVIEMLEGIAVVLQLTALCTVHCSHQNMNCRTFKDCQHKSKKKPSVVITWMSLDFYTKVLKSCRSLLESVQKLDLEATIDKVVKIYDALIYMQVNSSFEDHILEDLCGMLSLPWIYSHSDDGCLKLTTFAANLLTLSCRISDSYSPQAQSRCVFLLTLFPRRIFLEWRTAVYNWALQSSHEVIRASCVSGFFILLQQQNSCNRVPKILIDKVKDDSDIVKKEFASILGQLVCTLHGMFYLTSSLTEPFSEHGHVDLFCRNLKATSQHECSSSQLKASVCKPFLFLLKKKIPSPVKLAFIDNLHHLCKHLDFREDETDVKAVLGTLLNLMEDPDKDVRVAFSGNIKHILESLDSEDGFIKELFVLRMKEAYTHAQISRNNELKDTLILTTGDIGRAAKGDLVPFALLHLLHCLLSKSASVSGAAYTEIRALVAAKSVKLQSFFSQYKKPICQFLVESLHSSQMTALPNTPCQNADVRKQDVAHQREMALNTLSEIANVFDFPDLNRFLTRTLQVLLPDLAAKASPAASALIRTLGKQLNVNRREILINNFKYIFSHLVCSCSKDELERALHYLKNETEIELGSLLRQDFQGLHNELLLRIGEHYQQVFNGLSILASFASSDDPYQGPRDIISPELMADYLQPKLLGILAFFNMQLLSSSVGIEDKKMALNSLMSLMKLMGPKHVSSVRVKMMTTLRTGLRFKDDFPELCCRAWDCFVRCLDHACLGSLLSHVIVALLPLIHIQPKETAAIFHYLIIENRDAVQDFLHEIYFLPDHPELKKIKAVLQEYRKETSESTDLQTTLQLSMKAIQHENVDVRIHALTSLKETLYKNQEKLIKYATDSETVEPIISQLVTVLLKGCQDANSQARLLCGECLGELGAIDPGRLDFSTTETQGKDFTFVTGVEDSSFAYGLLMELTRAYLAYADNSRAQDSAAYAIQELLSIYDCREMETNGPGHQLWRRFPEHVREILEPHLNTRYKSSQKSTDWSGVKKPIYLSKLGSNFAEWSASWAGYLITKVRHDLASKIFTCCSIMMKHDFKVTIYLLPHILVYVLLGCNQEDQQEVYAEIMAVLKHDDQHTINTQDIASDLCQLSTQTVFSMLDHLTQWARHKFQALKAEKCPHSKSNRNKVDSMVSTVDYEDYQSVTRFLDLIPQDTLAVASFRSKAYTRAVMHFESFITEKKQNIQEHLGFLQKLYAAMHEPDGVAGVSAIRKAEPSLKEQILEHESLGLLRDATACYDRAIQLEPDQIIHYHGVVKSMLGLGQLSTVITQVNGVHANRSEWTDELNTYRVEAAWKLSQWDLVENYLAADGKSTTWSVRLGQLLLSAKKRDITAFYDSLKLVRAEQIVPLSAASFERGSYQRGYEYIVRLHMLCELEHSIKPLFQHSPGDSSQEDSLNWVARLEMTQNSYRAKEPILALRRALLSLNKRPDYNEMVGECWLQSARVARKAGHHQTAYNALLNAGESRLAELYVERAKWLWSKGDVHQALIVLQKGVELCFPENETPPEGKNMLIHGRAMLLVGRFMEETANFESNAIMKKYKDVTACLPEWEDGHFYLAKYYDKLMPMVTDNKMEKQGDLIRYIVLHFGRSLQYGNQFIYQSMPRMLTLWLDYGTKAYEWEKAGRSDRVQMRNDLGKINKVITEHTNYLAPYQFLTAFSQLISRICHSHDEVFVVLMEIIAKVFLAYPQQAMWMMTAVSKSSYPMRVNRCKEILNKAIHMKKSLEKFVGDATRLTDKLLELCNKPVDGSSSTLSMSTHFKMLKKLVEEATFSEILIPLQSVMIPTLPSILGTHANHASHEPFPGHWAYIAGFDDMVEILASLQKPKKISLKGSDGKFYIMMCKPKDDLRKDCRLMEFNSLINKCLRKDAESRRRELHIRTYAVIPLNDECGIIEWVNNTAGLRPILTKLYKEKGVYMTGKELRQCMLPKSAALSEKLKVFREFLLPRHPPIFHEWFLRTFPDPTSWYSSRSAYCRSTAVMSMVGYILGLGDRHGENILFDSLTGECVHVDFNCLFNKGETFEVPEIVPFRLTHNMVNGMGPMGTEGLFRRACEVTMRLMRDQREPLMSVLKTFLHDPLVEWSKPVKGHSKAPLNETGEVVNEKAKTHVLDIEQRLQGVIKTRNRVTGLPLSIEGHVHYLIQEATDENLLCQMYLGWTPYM

As for `Nc1nn2cc(F)cnc2c1C(=O)Nc1cncc(F)c1N1CCC(C(=O)N2CCN(C3COC3)CC2)CC1` [Compound I-1, 2-amino-6-fluoro-N-[5-fluoro-4-[4-[4-(oxetan-3-yl)piperazine-1-carbonyl]-1-piperidyl]-3-pyridyl]pyrazolo[1,5-a]pyrimidine-3-carboxamide], the pKi was over 6.00. For `[2H]C1([2H])N(C(=O)C2CCN(c3c(F)cncc3NC(=O)c3c(N)nn4cc(F)cnc34)CC2)C([2H])([2H])C([2H])([2H])N(C2COC2)C1([2H])[2H]` [Compound I-3, 2-amino-6-fluoro-N-(5-fluoro-4-(4-(2,2,3,3,5,5,6,6-octadeutero-4-(oxetan-3-yl)piperazine-1-carbonyl)piperidin-1-yl)-3-pyridyl)pyrazolo[1,5-a]pyrimidine-3-carboxamide], the pKi is over 6.00.
